# According to PMC5289826 (PLoS ONE, 2017):
# Test system: T1, human 17β-HSD1
# T1 construct: expressed in transfected cells; host or cells: HEK-293 (transient)
# Test: 17β-HSD1 enzyme activity in cell lysates (estrone to estradiol)
# Format: biochemical
# Details: 1 μM, 200 nM estrone
# Experimental: (§1) Human embryonic kidney (HEK-293) cells either stably expressing human 11β-HSD1 and H6PDH (HHH7 clone, [38]) or 11β-HSD2 (AT8 clone, [39]), or transiently expressing human 17β-HSD1 or 17β-HSD2, were cultivated in Dulbecco’s modified Eagle medium (DMEM) containing 4.5 g/L glucose, 10% fetal bovine serum, 100 U/mL penicillin, 0.1 mg/mL streptomycin, 1 × MEM nonessential amino acids, and 10 mM HEPES buffer, pH 7.4. Cells were washed with phosphate-buffered saline (PBS), centrifuged for 4 min at 150 × g, and the cell pellets were snap frozen on dry ice and stored at −80°C until further use.
# (§2) Cell lysates were resuspended in TS2 buffer (100 mM NaCl, 1 mM EGTA, 1 mM EDTA, 1 mM MgCl2, 250 mM sucrose, 20 mM Tris-HCl, pH 7.4), followed by sonication at 4°C using a Hielscher UP50H ultrasonic processor (0.3 cycle, 20 amplitude %, 20 impulses; Hielscher Ultrasonics GmbH, Teltow Germany). Cell lysates, reaction mixture, and either vehicle (DMSO) or inhibitor were incubated for 10 min at 37°C in a final volume of 22.2 μL. The solvent concentration was 0.1%. […] 11β-HSD2 activity was measured in the presence of 50 nM cortisol and 500 μM NAD^+. An amount of 50 nCi of radiolabeled tracer substrate was included in the experiments. […] The bands of the corresponding steroids were excised, followed by scintillation counting and calculation of the amount of substrate conversion. Data were obtained from at least three independent measurements. Glycyrrhetinic acid (CTRL 1) was used as positive control for 11β-HSD1 and 11β-HSD2 inhibition, apigenin (CTRL 2) for 17β-HSD1, and compound 22 from Vuorinen et al. [40](CTRL 3) for 17β-HSD2 inhibition.
row,SMILES,inhibition of 17β-HSD1 (in words)
1,"CC1CCN(C(=O)c2cccc(-c3ccc(O)cc3)c2)CC1 [7b, (4’-Hydroxy-[1,1’-biphenyl]-3-yl)(4-methylpiperidin-1-yl)methanone]",selective
2,"Cc1ccc(-c2cccc(C(=O)N3CCCCCC3)c2)cc1F [3e, Azepan-1-yl(3’-fluoro-4’-methyl-[1,1’-biphenyl]-3-yl)methanone]",selective

# Test system: T2, human 17β-HSD2
# T2 construct: expressed in transfected cells; host or cells: HEK-293 (transient)
# Test: 17β-HSD2 enzyme activity in cell lysates (estradiol to estrone)
# Format: biochemical
# Details: 1 μM, 200 nM estradiol
# Experimental: as §1, §2
row,SMILES,inhibition of 17β-HSD2 (in words)
1,"CC1CCN(C(=O)c2cccc(-c3ccc(O)cc3)c2)CC1 [7b, (4’-Hydroxy-[1,1’-biphenyl]-3-yl)(4-methylpiperidin-1-yl)methanone]",selective
2,"Cc1ccc(-c2cccc(C(=O)N3CCCCCC3)c2)cc1F [3e, Azepan-1-yl(3’-fluoro-4’-methyl-[1,1’-biphenyl]-3-yl)methanone]",selective

# Test system: human skin biopsies
# Test: Dermal total collagen content in ex vivo human skin biopsies (Picrosirius Red)
# Details: 10 μM or 100 μM inhibitor topically, 6 days; 100 nM cortisone for 5 days
# Experimental: (§3) Ex vivo skin experiments were performed as contract research by Cutech Biotechnology following the Helsinki declaration and who obtained permission as well as informed consent from the patient (Padova, Italy). Human skin from abdominal plastic surgery of a donor was used. Skin samples were cut in pieces of approximately 8 × 3 mm (diameter × thickness) and cultured in an air-liquid interface in a perforated ring of stainless steel in contact with culture medium (modified Williams’ E medium, Sigma Aldrich) up to day 6. The culture medium was renewed on day 0 and day 3. The test compounds were applied topically and renewed daily. The application was performed as follows: skin biopsies were gently cleaned with a cotton pad and 4 μL of 10 μM or 100 μM test compound were applied on top of each piece and covered with a 6 mm (diameter) delivery membrane (CoTran 9728 Controlled Caliper Ethylene Vinyl Acetate Membrane, 3M, St. Paul, MN, USA).
# Skin viability was assessed in two skin biopsies after 6 days of treatment using methylthiazolyldiphenyl‐tetrazolium bromide (MTT, Sigma Aldrich) staining. Total dermal collagen in skin sections was semi-quantitatively evaluated by Picrosirius Red histochemical staining (using Picric Acid, Fast Green FCF and Direct Red from Sigma Aldrich) that dyes collagen fibers in purple-red. […] The evaluation was performed by estimating both color intensity and distribution using IMAGE J (NIH) analysis software, allowing to obtain a semi-quantitative evaluation of dermal collagen (collagen score). Two slides of each skin sample were processed by image acquisition and related analysis (i.e. 12 images for each treatment).
row,SMILES,effect on cortisone-induced collagen decrease (in words)
1,"Cc1ccc(-c2cccc(C(=O)N3CCCCCC3)c2)cc1F [3e, Azepan-1-yl(3’-fluoro-4’-methyl-[1,1’-biphenyl]-3-yl)methanone]",prevented the cortisone-induced collagen decrease

# Target: T3, endogenous 11β-HSD1 (Homo sapiens, UniProt P28845)
# T3 construct: intact primary human keratinocytes expressing endogenous 11β-HSD1; host or cells: primary human epidermal keratinocytes
# Test: 11β-HSD1-dependent cortisol formation in intact primary human keratinocytes
# Format: cell-based
# Details: 1 μM compound; primary human keratinocytes; 1 μM cortisone; 24 h
# Experimental: Human epidermal keratinocytes obtained from CELLnTEC advanced Cell Systems (Berne, Switzerland) were maintained in CnT-Prime medium (http://cellntec.com/products/cnt-pr/#datasheet) at 37°C. Cells were subcultivated before reaching confluence. After reaching 90% of confluence, the keratinocytes were washed twice with PBS prior to change to cortisol-free CnT-Prime medium (custom-made by CELLnTEC). […] Compound CAS 1009373-58-3 (CTRL 4, Merck Millipore, Darmstadt, Germany) was used as positive control. After 24 h cell culture supernatants were collected and the amount of cortisol produced was measured on a Mulstiskan Ascent plate reader (MTX Lab Systems, Bradenton, FL) using the Cortisol Parameter Assay Kit (R&D Systems, Minneapolis, MN) following the instructions by the manufacturer. Cell viability was assessed using PrestoBlue® Cell Viability Reagent (Invitrogen, Carlsbad, CA) according to the manufacturer’s instructions.
# T3 sequence (P28845 whole entry): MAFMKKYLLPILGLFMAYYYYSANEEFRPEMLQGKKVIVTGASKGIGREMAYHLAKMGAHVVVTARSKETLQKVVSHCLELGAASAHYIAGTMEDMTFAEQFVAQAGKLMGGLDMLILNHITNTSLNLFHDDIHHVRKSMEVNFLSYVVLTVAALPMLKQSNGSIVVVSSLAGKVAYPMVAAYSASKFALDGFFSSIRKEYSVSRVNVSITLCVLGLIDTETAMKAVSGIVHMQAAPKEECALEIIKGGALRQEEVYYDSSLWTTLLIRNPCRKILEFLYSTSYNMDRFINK
row,SMILES,inhibition of cortisol formation (in words)
1,"CC1CCN(C(=O)c2cccc(-c3ccc(O)cc3)c2)CC1 [7b, (4’-Hydroxy-[1,1’-biphenyl]-3-yl)(4-methylpiperidin-1-yl)methanone]",almost completely inhibited
2,"Cc1ccc(-c2cccc(C(=O)N3CCCCCC3)c2)cc1F [3e, Azepan-1-yl(3’-fluoro-4’-methyl-[1,1’-biphenyl]-3-yl)methanone]",almost completely inhibited

# Same assay, conditions: read-out: estimated IC50 of cortisol formation
row,SMILES,IC50 [µM]
1,"CC1CCN(C(=O)c2cccc(-c3ccc(O)cc3)c2)CC1 [7b, (4’-Hydroxy-[1,1’-biphenyl]-3-yl)(4-methylpiperidin-1-yl)methanone]",≤ 0.1
2,"Cc1ccc(-c2cccc(C(=O)N3CCCCCC3)c2)cc1F [3e, Azepan-1-yl(3’-fluoro-4’-methyl-[1,1’-biphenyl]-3-yl)methanone]",≤ 0.1

# Test system: T4, human 11β-HSD1
# T4 construct: expressed in transfected cells
# Test: 11β-HSD1 activity assay in intact HEK-293 cells co-expressing 11β-HSD1 and H6PDH
# Format: cell-based
# Details: 100 nM and 1 μM compound; intact HHH7 cells; 200 nM cortisone; 30 min
# Experimental: HEK-293 cells co-expressing 11β-HSD1 and H6PDH were seeded in poly-L-lysine coated 96 well-plates (30’000 cells/well) and cultivated in DMEM. At 24 h post-seeding, the cells were washed with charcoal-treated serum-free DMEM (cDMEM) and incubated for 3 h in 100 μL cDMEM. Then, the medium was aspirated and replaced by 30 μL cDMEM. […] The reactions were terminated after 30 min of incubation, followed by analysis of substrate conversion as described above. Data were obtained from at least three independent measurements.
row,SMILES,inhibition of 11β-HSD1 in intact cells (in words)
1,"CC1CCN(C(=O)c2cccc(-c3ccc(O)cc3)c2)CC1 [7b, (4’-Hydroxy-[1,1’-biphenyl]-3-yl)(4-methylpiperidin-1-yl)methanone]",almost completely inhibited
2,"Cc1ccc(-c2cccc(C(=O)N3CCCCCC3)c2)cc1F [3e, Azepan-1-yl(3’-fluoro-4’-methyl-[1,1’-biphenyl]-3-yl)methanone]",almost completely inhibited

# Test system: not given
# Test: not given
# Details: not given
row,SMILES,melting point [°C]
1,"Cc1ccc(-c2cccc(C(=O)N3CCCCCC3)c2)cc1F [3e, Azepan-1-yl(3’-fluoro-4’-methyl-[1,1’-biphenyl]-3-yl)methanone]",106 to 108

# Test system: human skin biopsies
# Test: Dermal collagen III content in UV exposed ex vivo human skin biopsies (anti-collagen III antibody)
# Details: 100 μM; 3.0 J/cm^2 UV irradiation; p<0.01
# Experimental: as §3
# Skin biopsies were subjected to UV irradiation using a BIO-SUN system (Vilber Lourmat, Eberhardzell, Germany). The system had the following specifications: Lamp wave length: UVB 312 nm (range 280–320 nm) and UVA 365 nm (range 355–375 nm), range of measure (irradiance): accuracy and linearity ± 0.2%, range of programmed energy: 0.1 to 99.99 J/cm^2, intensity: UVA (365 nm) 5 mW/cm^2, UVB (312 nm) 3 mW/cm^2, UVA + UVB: 5.6 + 3.2 mW/cm^2, respectively. The selected UV irradiation intensities were 40% and 80% of the Biological Effective Dose (BED) of 7.5 J/cm^2 UV daylight as described by Del Bino et al.. UV 40% BED = 3.0 J/cm^2 (= 0.1 J/cm^2 UVB + 2.9 J/cm^2 UVA); UV 80% = 6.0 J/cm^2 (= 0.2 J/cm^2 UVB + 5.8 J/cm^2 UVA).
# Furthermore, in a preliminary set of experiments, skin biopsies were UV irradiated at 3.0 J/cm^2 and 6.0 J/cm^2 and treated topically with 4 μL of 10 μM or 100 μM of the respective inhibitor, followed by determination of collagen III content using a mouse monoclonal anti-collagen III antibody (Sigma Aldrich).
row,SMILES,collagen III vs UV treated vehicle control (in words)
1,"Cc1ccc(-c2cccc(C(=O)N3CCCCCC3)c2)cc1F [3e, Azepan-1-yl(3’-fluoro-4’-methyl-[1,1’-biphenyl]-3-yl)methanone]",significantly higher collagen III

# Same assay, conditions: 100 μM; 6.0 J/cm^2 UV irradiation
row,SMILES,collagen III vs UV treated vehicle control (in words)
1,"Cc1ccc(-c2cccc(C(=O)N3CCCCCC3)c2)cc1F [3e, Azepan-1-yl(3’-fluoro-4’-methyl-[1,1’-biphenyl]-3-yl)methanone]",significantly higher collagen III

# Same assay, conditions: topical 10 μM or 100 μM; 3.0 and 6.0 J/cm^2 UV; preliminary
row,SMILES,effect on UV-mediated decrease in collagen III levels (in words)
1,"Cc1ccc(-c2cccc(C(=O)N3CCCCCC3)c2)cc1F [3e, Azepan-1-yl(3’-fluoro-4’-methyl-[1,1’-biphenyl]-3-yl)methanone]",prevented the decrease in collagen III levels

# Target: T5, recombinant human 11β-HSD1 (Homo sapiens, UniProt P28845)
# T5 construct: expressed in transfected cells
# Test: 11β-HSD1 enzyme activity in cell lysates (cortisone to cortisol, radiolabeled tracer, TLC)
# Format: biochemical
# Details: not given
# Experimental: as §1, §2
# T5 sequence (P28845 whole entry): as above
row,SMILES,IC50 [µM]
1,"CC1CCN(C(=O)c2cccc(-c3ccc(O)cc3)c2)CC1 [7b, (4’-Hydroxy-[1,1’-biphenyl]-3-yl)(4-methylpiperidin-1-yl)methanone]",0.0404
2,"Cc1ccc(-c2cccc(C(=O)N3CCCCCC3)c2)cc1F [3e, Azepan-1-yl(3’-fluoro-4’-methyl-[1,1’-biphenyl]-3-yl)methanone]",0.0345

# Same assay, conditions: 100 nM compound; lysates of HEK-293 cells; 200 nM cortisone; mean of three experiments
row,SMILES,"11β-HSD1 Residual activity, % of control at 100 nM"
1,"CC1CCN(C(=O)c2cccc(-c3ccc(O)cc3)c2)CC1 [7b, (4’-Hydroxy-[1,1’-biphenyl]-3-yl)(4-methylpiperidin-1-yl)methanone]",38 % of control
2,"Cc1ccc(-c2cccc(C(=O)N3CCCCCC3)c2)cc1F [3e, Azepan-1-yl(3’-fluoro-4’-methyl-[1,1’-biphenyl]-3-yl)methanone]",19 % of control

# Same assay, conditions: 1 μM compound; lysates of HEK-293 cells; 200 nM cortisone; mean of three experiments
row,SMILES,"11β-HSD1 Residual activity, % of control at 1 μM"
1,"CC1CCN(C(=O)c2cccc(-c3ccc(O)cc3)c2)CC1 [7b, (4’-Hydroxy-[1,1’-biphenyl]-3-yl)(4-methylpiperidin-1-yl)methanone]",5 % of control
2,"Cc1ccc(-c2cccc(C(=O)N3CCCCCC3)c2)cc1F [3e, Azepan-1-yl(3’-fluoro-4’-methyl-[1,1’-biphenyl]-3-yl)methanone]",1 % of control

# Test system: T6, recombinant human 11β-HSD2
# T6 construct: expressed in transfected cells
# Test: 11β-HSD2 enzyme activity in cell lysates (cortisol to cortisone)
# Format: biochemical
# Details: 1 μM compound; lysates of HEK-293 cells; 50 nM cortisol
# Experimental: as §1, §2
row,SMILES,"11β-HSD2 Residual activity, % of control at 1 μM"
1,"CC1CCN(C(=O)c2cccc(-c3ccc(O)cc3)c2)CC1 [7b, (4’-Hydroxy-[1,1’-biphenyl]-3-yl)(4-methylpiperidin-1-yl)methanone]",> 90 % of control
2,"Cc1ccc(-c2cccc(C(=O)N3CCCCCC3)c2)cc1F [3e, Azepan-1-yl(3’-fluoro-4’-methyl-[1,1’-biphenyl]-3-yl)methanone]",> 90 % of control
